Measured values from ChEMBL document CHEMBL5120968, “Syzysamalactone, an Unusual 11-Carbon δ-Lactone Derivative from the Fresh Ripe Fruits of Syzygium samarangense (Wax Apple)” (J Nat Prod, 2022).

system: SH-SY5Y; experiment: Neuroprotective activity against 6-OHDA induced cell death in human SH-SY5Y cells preincubated with 6-hyrdoxydopamine followed by compound addition and measured after 24 hrs by MTT assay; format: functional, cell-based

| SMILES | EC50 |
| --- | --- |
| CCCCCc1cccc(=O)o1 | 1280 nM |
| CC[C@H]1CCc2oc(=O)ccc2[C@H]1O | 290 nM |
| COc1cc(/C=C/C(=O)CC(=O)/C=C/c2ccc(O)c(OC)c2)ccc1O [CURCUMIN] | 5290 nM |
